Experimental data: ChEMBL document CHEMBL4118200, “Boronic acid inhibitors of the class A β-lactamase KPC-2” (Bioorg Med Chem, 2018)
Converted amounts (≈) assume the structure as drawn.

What was measured:
[1] = tested on: Bacteria
Description: Inhibition of bacterial beta-lactamase KPC2 expressed in Escherichia coli BL21(DE3) assessed as cefotaxime MIC at 50 ug/ml incubated for 16 hrs by broth microdilution method (Rvb = 16 ug/ml)

[2] = biological target: Beta-lactamase (Escherichia coli) (UniProt Q7BB82); conditions: G69
[3] = tested on: Klebsiella pneumoniae; conditions: isolate 342
[4] = tested on: Escherichia coli; experiment: microbe, parasite or virus in culture; assay type: functional; conditions: NCTC 10118, 16 h
[5] = biological target: Metallo-beta-lactamase type 2 (Klebsiella pneumoniae) (UniProt C7C422); conditions: NCTC 13443
Sequence of Metallo-beta-lactamase type 2 (Klebsiella pneumoniae) (C7C422 whole entry): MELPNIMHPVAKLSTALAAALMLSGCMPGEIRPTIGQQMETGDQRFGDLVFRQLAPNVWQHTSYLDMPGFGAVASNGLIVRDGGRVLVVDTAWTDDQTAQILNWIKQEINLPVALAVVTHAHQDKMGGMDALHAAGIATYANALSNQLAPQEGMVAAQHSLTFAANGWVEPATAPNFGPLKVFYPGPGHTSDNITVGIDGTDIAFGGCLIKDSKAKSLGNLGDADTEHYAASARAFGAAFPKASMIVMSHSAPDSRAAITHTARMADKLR

[6] = Inhibition of bacterial AmpC; set-up: species or system Bacteria

Sequence of Beta-lactamase (Escherichia coli) (Q7BB82 as listed by the source): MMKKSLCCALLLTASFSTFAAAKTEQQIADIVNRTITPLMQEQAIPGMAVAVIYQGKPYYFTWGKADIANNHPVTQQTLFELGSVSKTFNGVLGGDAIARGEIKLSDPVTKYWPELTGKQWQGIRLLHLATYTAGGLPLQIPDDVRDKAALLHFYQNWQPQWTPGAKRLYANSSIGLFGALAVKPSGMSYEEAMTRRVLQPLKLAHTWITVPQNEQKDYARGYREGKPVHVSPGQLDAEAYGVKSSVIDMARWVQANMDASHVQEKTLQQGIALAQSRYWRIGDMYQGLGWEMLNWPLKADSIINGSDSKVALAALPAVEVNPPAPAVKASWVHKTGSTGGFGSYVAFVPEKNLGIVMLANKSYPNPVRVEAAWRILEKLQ

COc1ccc(-c2cn(Cc3cccc(B(O)O)c3)nn2)cc1
MIC [1]: 0.12 µg/mL (≈ 0.388 µM) | MIC [2]: 32 µg/mL (≈ 104 µM) | MIC [3]: > 32 µg/mL | MIC [4]: ≤ 0.03 µg/mL | MIC [5]: > 32 µg/mL

OB(O)c1ccc(Cn2cc(-c3ccsc3)nn2)cc1
MIC [1]: < 0.03 µg/mL | MIC [2]: > 32 µg/mL | MIC [3]: > 32 µg/mL | MIC [4]: ≤ 0.03 µg/mL | MIC [5]: > 32 µg/mL

[N-]=[N+]=NCc1cccc(B(O)O)c1
MIC [1]: < 0.03 µg/mL | MIC [2]: 8 µg/mL (≈ 45.2 µM) | MIC [3]: > 32 µg/mL | MIC [4]: ≤ 0.03 µg/mL | MIC [5]: > 32 µg/mL

OB(O)c1ccc(Cn2cc(-c3ccccc3)nn2)cc1
MIC [1]: < 0.03 µg/mL | MIC [2]: > 32 µg/mL | MIC [3]: > 32 µg/mL | MIC [4]: ≤ 0.03 µg/mL | MIC [5]: > 32 µg/mL

OB(O)c1cccc(/N=N/c2cc3ccccc3cc2O)c1
Ki [6]: 300 nM

COc1ccc(-c2cn(Cc3ccc(B(O)O)cc3)nn2)cc1
MIC [1]: 0.06 µg/mL (≈ 0.194 µM) | MIC [2]: > 32 µg/mL | MIC [3]: > 32 µg/mL | MIC [4]: ≤ 0.03 µg/mL | MIC [5]: > 32 µg/mL

OB(O)c1ccc(Cn2cc(-c3cccs3)nn2)cc1
MIC [1]: 0.12 µg/mL (≈ 0.421 µM) | MIC [2]: > 32 µg/mL | MIC [3]: > 32 µg/mL | MIC [4]: ≤ 0.03 µg/mL | MIC [5]: > 32 µg/mL

O=C(O)C/C=C/c1c(B(O)O)sc2ccccc12
Ki [6]: 90 nM

OB(O)c1ccc(Cn2cc(-c3cccnc3)nn2)cc1
MIC [1]: < 0.03 µg/mL | MIC [2]: > 32 µg/mL | MIC [3]: > 32 µg/mL | MIC [4]: ≤ 0.03 µg/mL | MIC [5]: > 32 µg/mL

OB(O)c1cccc(Cn2cc(-c3ccsc3)nn2)c1
MIC [1]: < 0.03 µg/mL | MIC [2]: > 32 µg/mL | MIC [3]: > 32 µg/mL | MIC [4]: ≤ 0.03 µg/mL | MIC [5]: > 32 µg/mL

OB(O)c1cccc(Cn2cc(-c3ccccn3)nn2)c1
MIC [1]: < 0.03 µg/mL | MIC [2]: > 32 µg/mL | MIC [3]: > 32 µg/mL | MIC [4]: ≤ 0.03 µg/mL | MIC [5]: > 32 µg/mL

O=C(Cc1cccs1)N[C@@H](B(O)O)c1ccccc1
Ki [6]: 35 nM

OB(O)c1ccc(Cn2cc(-c3ccccn3)nn2)cc1
MIC [1]: < 0.03 µg/mL | MIC [2]: > 32 µg/mL | MIC [3]: > 32 µg/mL | MIC [4]: ≤ 0.03 µg/mL | MIC [5]: > 32 µg/mL

Nc1cccc(B(O)O)c1
Ki [6]: 7100 nM

OB(O)c1cccc(Cn2cc(-c3cccnc3)nn2)c1
MIC [1]: < 0.03 µg/mL | MIC [2]: > 32 µg/mL | MIC [3]: > 32 µg/mL | MIC [4]: ≤ 0.03 µg/mL | MIC [5]: > 32 µg/mL

OB(O)c1cccc(Cn2cc(-c3ccccc3)nn2)c1
MIC [1]: < 0.03 µg/mL | MIC [2]: > 32 µg/mL | MIC [3]: > 32 µg/mL | MIC [4]: ≤ 0.03 µg/mL | MIC [5]: > 32 µg/mL

[N-]=[N+]=NCc1ccc(B(O)O)cc1
MIC [1]: < 0.03 µg/mL | MIC [2]: > 32 µg/mL | MIC [3]: > 32 µg/mL | MIC [4]: ≤ 0.03 µg/mL | MIC [5]: > 32 µg/mL

OB(O)c1cccc(Cn2cc(-c3cccs3)nn2)c1
MIC [1]: < 0.03 µg/mL | MIC [2]: > 32 µg/mL | MIC [3]: > 32 µg/mL | MIC [4]: ≤ 0.03 µg/mL | MIC [5]: > 32 µg/mL
